In one data set the test system is SARS-CoV-2. The data set is classed as cell-based.
For data set [1] the following is noted: used in much larger amounts as food additive and sweetener than for nasal delivery; cited from earlier work.
For data set [2] the following is noted: cited from earlier work.

This is an account of results in US11013687B1, “Preventive and therapeutic treatment for COVID 19 and any other disease caused by SARS CoV 2” (priority 2020, dated 2021).

As for `OC[C@@H](O)[C@H](O)[C@@H](O)CO` [xylitol, Xylitol], the “capable of inhibiting SARS CoV 2 in vitro (in words)” value in the data set on SARS-CoV-2 (xylitol alone) was “capable of inhibiting SARS CoV 2 in vitro”. For the same molecule, the safety for humans result in data set [1] is “safe for humans”.
For iota Carrageenan, in data set [2] (clinical trials with a formulation containing xylometazoline and iota Carrageenan), the “time iota Carrageenan stays in the nasal mucosa” value is listed as “about 4 hrs”. Besides, the residence time entry in data set [2] (nasal, estimation basis for dosing each 4 hours) is recorded as “approximately 4 hour”. Moreover, the “Log reduction of TCID50/mL after 48 hs. (mean of three replicates)” value in the data set on SARS-CoV-2 (6 μg/mL iota carrageenan, Vero E6, treated pre- and post-infection, 48 h, vs virus only, LOD in next column = titre at limit of detection) is given as “significantly reducing viral titers”. Also, in the data set on SARS-CoV-2 (concentration of iota Carrageenan, alone or in combination with xylitol), the “concentration capable of inhibiting SARS CoV 2 in vitro” value is given as “not less than 6 μg/mL”. Also, the safety for humans entry in data set [1] is reported as “safe for humans”.
